From patent publication US20260315487A1, “IKK-ALPHA INHIBITORS” (Cancer Research Technology Limited, priority 2023, published 2026) come the findings set out here.

A word on the Ki: it is a dissociation constant, usually derived from enzyme kinetics or from competition with a known ligand. Low readings indicate a stronger hold on the target, high ones a looser hold on the target.

In one experiment the target is T1, IKKα (Homo sapiens, UniProt O15111).
T1 sequence (O15111 1-745): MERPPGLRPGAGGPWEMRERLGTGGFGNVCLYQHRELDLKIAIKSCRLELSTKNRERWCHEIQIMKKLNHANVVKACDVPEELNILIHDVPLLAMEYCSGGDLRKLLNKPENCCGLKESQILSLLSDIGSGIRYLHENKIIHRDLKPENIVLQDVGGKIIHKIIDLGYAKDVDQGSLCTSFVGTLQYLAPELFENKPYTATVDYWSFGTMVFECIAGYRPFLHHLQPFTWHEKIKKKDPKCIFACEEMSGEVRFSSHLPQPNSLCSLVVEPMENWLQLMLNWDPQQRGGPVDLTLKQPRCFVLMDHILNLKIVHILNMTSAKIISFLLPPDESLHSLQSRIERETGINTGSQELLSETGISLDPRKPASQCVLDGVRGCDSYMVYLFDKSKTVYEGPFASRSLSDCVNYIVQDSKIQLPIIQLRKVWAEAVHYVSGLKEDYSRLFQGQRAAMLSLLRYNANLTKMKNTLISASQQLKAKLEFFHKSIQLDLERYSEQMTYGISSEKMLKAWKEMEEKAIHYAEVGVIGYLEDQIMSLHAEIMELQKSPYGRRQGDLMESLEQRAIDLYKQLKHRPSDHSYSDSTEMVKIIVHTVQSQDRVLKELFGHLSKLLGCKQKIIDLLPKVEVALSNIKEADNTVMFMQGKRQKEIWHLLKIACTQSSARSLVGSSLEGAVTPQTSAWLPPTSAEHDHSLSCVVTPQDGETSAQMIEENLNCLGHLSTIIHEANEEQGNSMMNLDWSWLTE
The experiment in a line: in-house DELFIA kinase assay, IKKα. The class given is biochemical. The text has this:
To examine the pyrrolo[2,3 -b]pyridines as an alternative scaffold, we adopted the AIPP core because it had similar dimensions to 1 SU909, with HBD/HBA motifs positioned at the scaffold extremities to interact with both the hinge region and the G-loop wall of IKKα, a rationale we had previously proposed as the basis for imparting selectivity. A preliminary set of AIPP derivatives was designed to explore its utility as an IKK-targeting scaffold, whilst incorporating additional functionality through which to introduce selectivity for the IKKα isoform (2-4 SU1087, SU1266 and SU1253; FIG. 3). This was achieved by initially adopting two different approaches: either appending a hydrophobic moiety to the pyrrolo[2,3 -b]pyridine motif as a fused form to afford the tricyclic derivatives 2 and 3 SU1266 and SU1087, or as a phenyl substituent to introduce flexibility with the central pyrrolo[2,3 -b]pyridine moiety in 4 SU1253 . […] The pyrrolo[2,3 -b]pyridine was bound to the hinge region in the classical HBA/HBD motif with the GK+3 NH and C═O backbone, whilst the aminoindazole projected towards the top of the pocket to interact with the G-loop (FIG. 4A). […] In both isoforms, the 2 -phenyl moiety was oriented out from the hinge towards the exposed solvent area.

In a further experiment the target is T2, IKKβ (Homo sapiens, UniProt O14920).
T2 sequence (O14920 1-756): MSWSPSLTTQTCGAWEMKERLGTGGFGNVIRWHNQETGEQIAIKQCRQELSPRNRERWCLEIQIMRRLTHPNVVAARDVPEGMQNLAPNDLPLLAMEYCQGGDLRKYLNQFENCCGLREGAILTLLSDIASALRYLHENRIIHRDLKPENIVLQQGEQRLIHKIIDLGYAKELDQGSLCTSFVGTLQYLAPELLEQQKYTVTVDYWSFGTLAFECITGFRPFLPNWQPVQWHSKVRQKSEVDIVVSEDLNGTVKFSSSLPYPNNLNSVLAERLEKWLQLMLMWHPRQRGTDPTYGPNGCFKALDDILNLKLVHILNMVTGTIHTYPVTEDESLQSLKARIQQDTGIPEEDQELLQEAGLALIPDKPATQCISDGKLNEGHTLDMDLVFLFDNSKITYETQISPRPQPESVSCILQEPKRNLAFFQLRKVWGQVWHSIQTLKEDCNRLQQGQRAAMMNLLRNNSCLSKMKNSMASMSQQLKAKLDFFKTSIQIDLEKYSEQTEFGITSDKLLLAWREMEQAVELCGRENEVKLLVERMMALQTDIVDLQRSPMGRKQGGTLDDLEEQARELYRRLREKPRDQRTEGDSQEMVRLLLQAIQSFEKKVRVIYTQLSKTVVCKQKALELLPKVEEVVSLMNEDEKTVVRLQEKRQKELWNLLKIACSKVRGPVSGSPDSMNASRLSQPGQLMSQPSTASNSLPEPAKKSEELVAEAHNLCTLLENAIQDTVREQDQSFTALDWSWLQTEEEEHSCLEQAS
The experiment in a line: in-house DELFIA kinase assay, IKKβ. The experiment is classed as biochemical. The text has this:
To examine the pyrrolo[2,3 -b]pyridines as an alternative scaffold, we adopted the AIPP core because it had similar dimensions to 1 SU909, with HBD/HBA motifs positioned at the scaffold extremities to interact with both the hinge region and the G-loop wall of IKKα, a rationale we had previously proposed as the basis for imparting selectivity. A preliminary set of AIPP derivatives was designed to explore its utility as an IKK-targeting scaffold, whilst incorporating additional functionality through which to introduce selectivity for the IKKα isoform (2-4 SU1087, SU1266 and SU1253; FIG. 3). This was achieved by initially adopting two different approaches: either appending a hydrophobic moiety to the pyrrolo[2,3 -b]pyridine motif as a fused form to afford the tricyclic derivatives 2 and 3 SU1266 and SU1087, or as a phenyl substituent to introduce flexibility with the central pyrrolo[2,3 -b]pyridine moiety in 4 SU1253 .

In the case of `Nc1n[nH]c2ccc(-c3ccnc4[nH]c5c(c34)CCCC5)cc12` [2 SU1266, 5-(6,7,8,9 -Tetrahydro-5 H-pyrido[2,3-b]indol-4-yl)-1 H-indazol-3-amine], the inhibitory constant (Ki) was 0.002 µM at IKKα and 0.077 µM at IKKβ.
For the compound `Nc1n[nH]c2ccc(-c3ccnc4[nH]c5ccccc5c34)cc12` [3 SU1087, 5-(9 H-pyrido[2,3-b]indol-4-yl)-1 H-indazol-3-amine], the results for the inhibitory constant (Ki) on IKKα and at IKKβ were 0.003 µM and 0.005 µM, respectively.
Take `Nc1n[nH]c2ccc(-c3ccnc4[nH]c(-c5ccccc5O)cc34)cc12` [5a SU1354, 2-(4-(3 -Amino-1 H-indazol-5-yl)-1 H-pyrrolo[2,3-b]pyridin-2-yl)phenol]: the Ki was 0.004 µM on IKKα and 0.042 µM at IKKβ.
For `Nc1n[nH]c2ccc(-c3ccnc4[nH]c(-c5cccc(S(=O)(=O)N6CCOCC6)c5)cc34)cc12` [5aa SU1311, 5-(2-(3-(Morpholinosulfonyl)phenyl)-1 H-pyrrolo[2,3-b]pyridin-4-yl)-1 H-indazol-3-amine] the same measures were 0.025 µM and 0.149 µM.
As to `CCOc1ccccc1-c1cc2c(-c3ccc4[nH]nc(N)c4c3)ccnc2[nH]1` [5b SU1368, 5-(2-(2 -Ethoxyphenyl)-1 H-pyrrolo[2,3-b]pyridin-4-yl)-1 H-indazol-3-amine], the results for the Ki on IKKα and on IKKβ were 0.008 µM and 0.086 µM, respectively.
For `Nc1cccc(-c2cc3c(-c4ccc5[nH]nc(N)c5c4)ccnc3[nH]2)c1` [5c SU1304, 5-(2-(3 -Aminophenyl)-1 H-pyrrolo[2,3-b]pyridin-4-yl)-1 H-indazol-3-amine], in that order: 0.005 µM and 0.028 µM.
Regarding `Nc1n[nH]c2ccc(-c3ccnc4[nH]c(-c5cccc(O)c5)cc34)cc12` [5d SU1348, 3-(4-(3 -Amino-1 H-indazol-5-yl)-1 H-pyrrolo[2,3-b]pyridin-2-yl)phenol], the inhibitory constant (Ki) on IKKα came out at 0.005 µM; on IKKβ, 0.026 µM.
For `COc1cccc(-c2cc3c(-c4ccc5[nH]nc(N)c5c4)ccnc3[nH]2)c1` [5e SU1332, 5-(2-(3 -Methoxyphenyl)-1 H-pyrrolo[2,3-b]pyridin-4-yl)-1 H-indazol-3-amine], the inhibitory constant (Ki) at IKKα turned out to be 0.005 µM; at IKKβ it was 0.04 µM.
In the case of `Nc1n[nH]c2ccc(-c3ccnc4[nH]c(-c5cc(O)cc(F)c5)cc34)cc12` [5f SU1384, 3-(4-(3 -Amino-1 H-indazol-5-yl)-1 H-pyrrolo[2,3-b]pyridin-2-yl)-5-fluorophenol], the Ki at IKKα was determined as 0.004 µM; at IKKβ, 0.042 µM.
For `COc1cc(F)cc(-c2cc3c(-c4ccc5[nH]nc(N)c5c4)ccnc3[nH]2)c1` [5g SU1373, 5-(2-(3 -Fluoro-5-methoxyphenyl)-1 H-pyrrolo[2,3-b]pyridin-4-yl)-1 H-indazol-3-amine] the same measures were 0.003 µM and 0.032 µM.
For `Nc1n[nH]c2ccc(-c3ccnc4[nH]c(-c5cccc(C(=O)O)c5)cc34)cc12` [5h SU1303, 3-(4-(3 -Amino-1 H-indazol-5-yl)-1 H-pyrrolo[2,3-b]pyridin-2-yl)benzoic acid] the same measures were 0.008 µM and 0.168 µM.
With `NC(=O)c1cccc(-c2cc3c(-c4ccc5[nH]nc(N)c5c4)ccnc3[nH]2)c1` [5i SU1294, 3-(4-(3 -Amino-1 H-indazol-5-yl)-1 H-pyrrolo[2,3-b]pyridin-2-yl)benzamide], the Ki amounted to 0.005 µM at IKKα and 0.159 µM at IKKβ.
For the compound `CS(=O)(=O)Nc1cccc(-c2cc3c(-c4ccc5[nH]nc(N)c5c4)ccnc3[nH]2)c1` [5j SU1288, N-(3-(4-(3 -Amino-1 H-indazol-5-yl)-1 H-pyrrolo[2,3-b]pyridin-2-yl)phenyl)methanesulfonamide], the Ki on IKKα was determined as 0.003 µM; at IKKβ, 0.109 µM.
For `CS(=O)(=O)c1cccc(-c2cc3c(-c4ccc5[nH]nc(N)c5c4)ccnc3[nH]2)c1` [5k SU1374, 5-(2-(3-(Methylsulfonyl)phenyl)-1 H-pyrrolo[2,3-b]pyridin-4-yl)-1 H-indazol-3-amine] the same measures were 0.003 µM and 0.036 µM.
Regarding `COCCC(=O)Nc1cccc(-c2cc3c(-c4ccc5[nH]nc(N)c5c4)ccnc3[nH]2)c1` [5l SU1317, N-(3-(4-(3 -Amino-1 H-indazol-5-yl)-1 H-pyrrolo[2,3-b]pyridin-2-yl)phenyl)-3-methoxypropanamide], the affinity on IKKα corresponds to a Ki of 0.006 µM. Further, at IKKβ, the “IKKβ inhibition, in words” value was “good IKKβ inhibition” and the inhibitory constant (Ki) was determined as 0.025 µM.
For `COCCNC(=O)c1cccc(-c2cc3c(-c4ccc5[nH]nc(N)c5c4)ccnc3[nH]2)c1` [5m SU1316, 3-(4-(3 -Amino-1 H-indazol-5-yl)-1 H-pyrrolo[2,3-b]pyridin-2-yl)-N-(2-methoxyethyl)benzamide] the same measures were 0.015 µM, “good IKKβ inhibition” and 0.107 µM.
For `Nc1n[nH]c2ccc(-c3ccnc4[nH]c(-c5cccc(CNc6ccccc6)c5)cc34)cc12` [5p SU1549, 5-(2-(3-((Phenylamino)methyl)phenyl)-1 H-pyrrolo[2,3-b]pyridin-4-yl)-1 H-indazol-3-amine], in that order: 0.035 µM, “lowest activity against IKKβ” and 0.47 µM.
In the case of `Nc1n[nH]c2ccc(-c3ccnc4[nH]c(-c5ccccc5OCc5ccccc5)cc34)cc12` [5q SU1353, 5-(2-(2-(Benzyloxy)phenyl)-1 H-pyrrolo[2,3-b]pyridin-4-yl)-1 H-indazol-3-amine], the Ki at IKKα is 0.057 µM. On IKKβ, the “IKKβ inhibition, in words” value is recorded as “lowest activity against IKKβ” and the affinity, expressed as Ki, was 1.06 µM.
For the compound `Cc1ccc(S(=O)(=O)Nc2cccc(-c3cc4c(-c5ccc6[nH]nc(N)c6c5)ccnc4[nH]3)c2)cc1` [5t SU1278, N-(3-(4-(3 -Amino-1 H-indazol-5-yl)-1 H-pyrrolo[2,3-b]pyridin-2-yl)phenyl)-4-methylbenzensulfonamide], the inhibitory constant (Ki) at IKKα came out at 0.01 µM. On IKKβ, the “IKKβ inhibition, in words” value is “lowest activity against IKKβ” and the affinity corresponds to a Ki of 1.05 µM.
`CN1CCN(C(=O)c2cccc(-c3cc4c(-c5ccc6[nH]nc(N)c6c5)ccnc4[nH]3)c2)CC1` [5v SU1312, (3-(4-(3 Amino-1 H-indazol-5-yl)-1 H-pyrrolo[2,3-b]pyridin-2-yl)phenyl)(4-methylpiperazin-1-y)methanone]: the values for the inhibition constant Ki at IKKα and on IKKβ were 0.024 µM and 0.215 µM, respectively.
